Data from PMC7062083, “Metabolite identification, tissue distribution, excretion and preclinical pharmacokinetic studies of ET-26-HCl, a new analogue of etomidate” (Royal Society Open Science, 2020).

Key:
[1] = Stability in beagle plasma (LC-MS/MS); type: in vitro ADME
Description: (§1) Concentrations of ET-26-HCl and ET-26-acid in biological samples were determined by liquid chromatography–tandem mass spectrometry (LC–MS/MS) after deproteinization with methanol. The bioanalytical method for simultaneous quantification of ET-26-HCl and ET-26-acid in the different matrix was fully validated according to FDA guidelines (electronic supplementary material, figure S1 and tables S1 and S2) in our previous study. Briefly, a 100 µl sample (plasma, tissue homogenate, bile, urine and faeces suspension) were spiked with 20 µl of IS solution and vortexed for 30 s. The mixture was then processed for protein precipitation with 300 µl methanol, followed by centrifugation at 12 000 r.p.m. for 5 min. Supernatant was collected and analysed by LC–MS/MS system.

[2] = Pharmacokinetics in beagle dogs after intravenous administration; type: in vivo; details: beagle dogs; for λ: i.v.; for Vd / half-life / AUC0-t / Cmax / clearance: both sexes, dog, plasma, iv; for Vd / half-life: beagle
Description: as §1
The LC–MS/MS was performed as described previously. Briefly, ET-26-HCl, ET-26-acid and GBP were separated using a CAPCELL PAK C18 column (50 × 2.00 mm, 5.00 µm) as well as a Security Guard Cartridge (C18, 4 mm × 3.00 mm i.d., Phenomenex). The mobile phase consisting of 0.3% formic acid water (A), and methanol (B) was pumped at a flow rate of 0.6 ml min^−1. The gradient elution was achieved according to the following protocol: 0 min to about 0.50 min, A/B (41/9, v/v); 0.51 min to about 1.5 min, A/B (1/9, v/v); and 1.51 min to about 2.00 min, A/B ([…], v/v). Mass spectrometry was conducted on an API 3000 mass spectrometer (Sciex, Framingham, MA, USA) equipped with an electrospray ionization (ESI) source operating in positive mode. The MS/MS system was in the multiple reaction monitoring (MRM) mode, using the m/z transitions of 275.6/170.9 for ET-26-HCl, 217.7/113.1 for ET-26-acid and 172.5/154.3 for GBP (IS), respectively. The API 3000 mass parameters were set according to the following protocol: curtain gas, 6 psi; collision gas, 8 psi; nebulizer, 4 psi; ion spray voltage, 3000 V and ion source temperature, 450°C. The autosampler was conditioned at 4°C, and the injection volume was 5 µl. The linear ranges of this analytical method for ET-26-HCl and for ET-26-acid from all biological samples are shown in electronic supplementary material, table S3.
Beagle dogs, weighing 9–11 kg, were purchased from Sichuan Industrial of Antibiotics, China National Pharmaceutical Group Corporation (Chengdu, China). A 3 × 3 crossover experimental design with 24 beagles (equal number of male and female dogs) randomly divided into six groups was conducted. Beagle dogs in the six groups received three doses of ET-26-HCl: 1.045 mg kg^−1, 2.090 mg kg^−1 and 4.180 mg kg^−1 as low (L), medium (M) and high (H) dose. Blood samples (2 ml) were collected from the elbow vein in 4 ml heparinized tubes before dosing, and at 1, 3, 5, 10, 20, 30, 120 and 180 min post-dosing. All blood samples were centrifuged at 8000 r.p.m. for 10 min and plasma collected and stored at −80°C until analysis.
All calculations were performed on Microsoft Excel 2016 (Microsoft Co., USA). The Drug and Statistics 3.2.7 (DAS 3.2.7) software package (Mathematical Pharmacology Professional Committee of China, China) was used to acquire the main pharmacokinetic parameters of ET-26-HCl. All data were shown as mean ± standard deviation (s.d.). Statistical significances were calculated by one-way analysis of variance (ANOVA).

[3] = Identification of major metabolites in liver microsomes (UPLC-Q-TOF-MS); type: in vitro ADME, mouse, rat, beagle dog, monkey and human; details: 10 µM ET-26-HCl, 1 mg ml^−1 liver microsomes, NADPH, 1 h
Description: The major metabolites of ET-26-HCl in liver microsomes from mouse, rat, beagle dog, monkey and human were determined by the UPLC-Q-TOF-MS system.
Reaction mixture containing 10 µM ET-26-HCl, […] MgCl2 and 1 mg ml^−1 liver microsomes in Tris-HCl phosphate buffer (pH 7.4) was pre-incubated for 6 min at 37°C, followed by the addition of NADPH. After incubation for 1 h, methanol was added to stop the reaction. Samples were centrifuged at 11 000 r.p.m. for 5 min; supernatants were collected and air dried at 40°C. Residues were dissolved in 100 µl acetonitrile/water (1:1, v/v) and analysed by the UPLC-Q-TOF-MS.
The UPLC-Q-OF-MS system was equipped with a Waters Synapt G2-Si quadrupole time-of-flight mass spectrometer (Q-TOF-MS), an ESI source and an ACQUITY UPLC H-CLASS liquid chromatography system. The chromatographic separations were achieved on an ACQUITY UPLC BEH C18 column (2.1 × 100 mm, i.d. 1.7 µm, Waters, USA) kept at 45°C and a flow rate of 0.4 ml min^−1. The mobile phase consisted of 5 mM ammonium acetate with 0.1% formic acid (A) and acetonitrile with 0.1% formic acid (B). The optimized gradient elution programme followed was 0 min to 2.1 min, A/B (19/1, v/v); 2.1 min to 7.3 min, A/B (1/4, v/v); 7.3 min to 8.0 min, A/B (1/9, v/v); and 8.0 min to 10 min, A/B (19/1, v/v). The injection volume was 5 µl. The mass experiment was operated in positive ion modes under the following parameters: turbo spray temperature, 120°C; ion spray voltage, 3.0 kV. Nitrogen was used as the nebulizer and the auxiliary gas; meanwhile, the nebulizer gas was set to 650 l h^−1 and kept at 350°C. The collision energy was set at 5–10 V and the collision energy spread was 4–6 V. TOF-MS was scanned with the mass range of m/z 50–600 with 200 ms accumulation time. A 400 ng ml^−1 leu-enkephalin (m/z 556.2771) was selected as an external standard for mass–charge ratio correction at a flow rate of 5 µl min^−1.

COCCOC(=O)c1cncn1[C@H](C)c1ccccc1.Cl [ET-26-HCl, (R)-2-methoxyethyl1-(1-phenylethyl)-1H-imidazole-5-carboxylate hydrochloride]
Measured concentration (Mean ± SD) ([1]; 4◦C for 3 h, nominal 44.92 ng/mL): 48.79 ± 3.275 ng/mL
Measured concentration (Mean ± SD) ([1]; 4◦C for 3 h, nominal 3743 ng/mL): 3977 ± 294.1 ng/mL
Measured concentration (Mean ± SD) ([1]; Freeze and Thaw Cycle (3), nominal 44.92 ng/mL): 47.75 ± 3.427 ng/mL
Measured concentration (Mean ± SD) ([1]; Freeze and Thaw Cycle (3), nominal 3743 ng/mL): 3722 ± 240.3 ng/mL
Measured concentration (Mean ± SD) ([1]; Room temperature 3 h, nominal 44.92 ng/mL): 47.91 ± 4.952 ng/mL
Measured concentration (Mean ± SD) ([1]; Room temperature 3 h, nominal 3743 ng/mL): 3599 ± 136.1 ng/mL
Measured concentration (Mean ± SD) ([1]; –80 ◦C for 30 days, nominal 44.92 ng/mL): 44.67 ± 4.795 ng/mL
Measured concentration (Mean ± SD) ([1]; –80 ◦C for 30 days, nominal 3743 ng/mL): 3989 ± 229.1 ng/mL
λ ([2]; 1.045 mg kg^−1): 0.78 ± 0.06 1 h^−1
λ ([2]; 2.09 mg kg^−1): 0.54 ± 0.06 1 h^−1
λ ([2]; 4.18 mg kg^−1): 0.36 ± 0.06 1 h^−1
Vd ([2]; 1.045 mg/kg, 1.045 mg kg^−1): 2.54 ± 0.29 L/kg
half-life ([2]; 1.045 mg/kg, 1.045 mg kg^−1): 0.92 ± 0.08 h
Vd ([2]; 2.09 mg/kg, 2.09 mg kg^−1): ~4 L/kg
half-life ([2]; 2.09 mg/kg, 2.09 mg kg^−1): ~1 h
Vd ([2]; 4.18 mg/kg, 4.18 mg kg^−1): 4.63 ± 0.67 L/kg
half-life ([2]; 4.18 mg/kg, 4.18 mg kg^−1): 2.17 ± 0.5 h
AUC0-t ([2]; 1.045 mg kg^−1): 30100 ng·h/mL
Cmax ([2]; 1.045 mg kg^−1): 1480 ± 140 ng/mL
clearance ([2]; 1.045 mg kg^−1): 32 mL/min/kg
AUC0-t ([2]; 2.09 mg kg^−1): 62700 ng·h/mL
Cmax ([2]; 2.09 mg kg^−1): 2850 ± 220 ng/mL
clearance ([2]; 2.09 mg kg^−1): 30 mL/min/kg
AUC0-t ([2]; 4.18 mg kg^−1): 130000 ng·h/mL
Cmax ([2]; 4.18 mg kg^−1): 6230 ± 240 ng/mL
clearance ([2]; 4.18 mg kg^−1): 25 mL/min/kg
source (liver microsomes) in which detected [3]: human and dog
source (liver microsomes) in which detected ([3]; listed as M0): human, dog
